Experimental data published in article PMC9686928, “10-mer and 9-mer WALK Peptides with Both Antibacterial and Anti-Inflammatory Activities” (Antibiotics, 2022).
Converted amounts (≈) assume the structure as drawn. Where no end group is shown, it is not given here.

What was measured:
[1] = system: human red blood cells; details: human red blood cells 10% v/v in PBS, 1 h; for MHC, minimal hemolytic concentration: lowest concentration showing 5% or more hemolysis, 1–64 μg/mL, A550, relative to 0.2% Triton X-100, triplicate; for percentage hemolysis: at 64 μg/mL, relative to 0.2% Triton X-100, average of three measurements
Description: Briefly, suspensions of human red blood cells (10% v/v in PBS) were treated for 1 h with various concentrations (1–64 μg/mL, two-fold serial dilutions) of peptides, followed by measurement of the absorbance of the supernatant at 550 nm. The relative attenuation was determined as the percentage of hemolysis compared to that of the blood suspension treated with 0.2% Triton X-100. The tests were performed in triplicate, and the average values of three independent measurements were recorded.

[2] = system: Staphylococcus aureus ATCC 6538p; test: microbe, parasite or virus in culture; assay type: cell-based; details: Gram-positive, broth microdilution, Luria-Bertani broth, 1–64 μg/mL two-fold serial dilutions, triplicate
Description: (§1) The antimicrobial activity of each peptide was assessed against four strains, including two Gram-positive (Bacillus subtilis ATCC 6633 and Staphylococcus aureus ATCC 6538p) and two Gram-negative bacteria (Escherichia coli ATCC 25922 and Shigella dysentariae ATCC 9752) cultured in Luria-Bertani broth media. Antibacterial susceptibility was determined as the MIC value, which was measured using the standard broth microdilution method as described previously. […] Two conventional antibiotics, ampicillin and kanamycin, were used as controls to confirm antibiotic susceptibility. The tests were performed in triplicate, and the MIC values that were reproduced twice or thrice in the three independent measurements were employed to calculate the GM value.

[3] = system: Shigella dysentariae ATCC 9752; test: microbe, parasite or virus in culture; assay type: cell-based; details: Gram-negative, broth microdilution, Luria-Bertani broth, 1–64 μg/mL two-fold serial dilutions, triplicate
Description: as §1

[4] = system: Escherichia coli ATCC 25922; test: microbe, parasite or virus in culture; assay type: cell-based; details: Gram-negative, broth microdilution, Luria-Bertani broth, 1–64 μg/mL two-fold serial dilutions, triplicate
Description: as §1

[5] = system: Bacillus subtilis ATCC 6633; test: microbe, parasite or virus in culture; assay type: cell-based; details: Gram-positive, broth microdilution, Luria-Bertani broth, 1–64 μg/mL two-fold serial dilutions, lowest concentration that completely inhibited growth, triplicate
Description: as §1

[6] = system: two Gram-positive and two Gram-negative bacterial strains; test: Antimicrobial assay, MICs over the four strains (geometric mean); assay type: cell-based, B. subtilis, S. aureus, E. coli, S. dysentariae; details: geometric mean of the MICs against the four strains
Description: as §1

[7] = system: RAW264.7 cells; details: at the concentrations tested, 16 h
Description: (§2) Macrophage cells seeded in 96-well cell culture plates at a density of 3 × 10^4 cells/well were incubated for 24 h, followed by treatment with LPS or individual WALK peptides and subsequent incubation for 16 h. Cell viability was then assessed by the conventional MTT assay. Briefly, the medium in each well was replaced with 100 μL of RPMI medium containing MTT (500 μg/mL). After 2 h of incubation, the medium was discarded and the insoluble formazan in each well was dissolved in 100 μL of DMSO with shaking. The absorbance of the solution at 550 nm was measured using a spectrophotometric microplate reader to determine the percentage of cell viability relative to that of control cells.

[8] = system: J774A.1 cells; details: peptides 8, 4 and 2 μM, 16 h
Description: (A) Cytotoxicity was assessed using the MTT assay. The cells were treated with lipopolysaccharides (LPS, 100 ng/mL) or peptides (8–2 μM, two-fold serial dilutions) for 16 h, followed by estimating the cell viability as the percentage of surviving cells compared to that of the control cells.
as §2

[9] = system: LPS-stimulated J774A.1 cells; test: Nitric oxide (NO) production, Griess reaction assay; assay type: cell-based, murine; details: LPS 100 ng/mL 16 h; for inhibitory effect against NO production: peptides 8, 4 and 2 μM, pretreatment 5 min, nitrite by Griess
Description: NT, non-treated; LPS, lipopolysaccharides. (A) Cytotoxicity was assessed using the MTT assay. […] (B) Anti-inflammatory potential deduced by NO assay.
The macrophage cells were seeded (3 × 10^4 cells/well) and incubated in 96-well plates for 24 h, followed by pretreatments with the WALK peptides at designated concentrations for 5 min and subsequent stimulation with 100 ng/mL of LPS for 16 h. The nitrite concentration in the culture medium was determined using the Griess reaction assay. Briefly, the culture supernatant (100 μL) was mixed with an equal volume of Griess reagent (1% sulfanilamide, 0.1% N-1-naphthyl ethylenediamine) and incubated for 5 min. The absorbance of the resulting chromophoric azo-derivative molecules was measured at 550 nm using a microplate reader with a fresh culture medium as a blank. The amount of nitrite in each sample was determined using a standard curve generated using a range of dilutions of sodium nitrite solutions.

Molecule | MHC, minimal hemolytic concentration [1] [µg/mL] | MIC, S. aureus [2] [µg/mL] | MIC, S. dysentariae [3] [µg/mL] | MIC, E. coli [4] [µg/mL] | MIC, B. subtilis [5] [µg/mL] | GM, geometric mean of MICs [6] [µg/mL] | percentage hemolysis [1] [%] | cytotoxicity (MTT assay) [7] | MIC ([2]; Staphylococcus aureus, ATCC6538P, read-out: MIC, S. aureus) [µg/mL] | MIC ([3]; Shigella, ATCC9752, read-out: MIC, S. dysentariae) [µg/mL] | MIC ([4]; Escherichia coli, ATCC25922) [µg/mL] | MIC ([5]; Bacillus subtilis, ATCC6633, read-out: MIC, B. subtilis) [µg/mL] | geometric mean MIC ([6]; read-out: GM, geometric mean of MICs) [µg/mL] | cytotoxicity (MTT assay) [8] | inhibitory effect against NO production [9] | NO inhibition at 8 μM ([9]; peptide 8 μM)
LKWLKKLLKW-NH2 [WALK244.10] | 32 | 2 | 8 | 8 | 2 | 4.0 |  |  |  |  |  |  |  |  |  | 
KKLLKWLLKW-NH2 [WALK244.06] | 32 | 3 | 16 | 16 | 2 | 6.3 |  |  |  |  |  |  |  |  |  | 
LKWLLKWLKK-NH2 [WALK244.03] | 64 | 8 | 32 | 8 | 8 | 11.3 |  |  |  |  |  |  |  |  |  | 
KWLLKWLLK-NH2 [WALK243.02] | 64 | 4 | 16 | 4 | 4 | 5.7 | 6.7 | did not demonstrate significant cytotoxicity |  |  |  |  |  |  |  | 
WLKKLLKWL-NH2 [WALK243.08] | 8 | 2 | 2 | 2 | 2 | 2.0 |  |  |  |  |  |  |  |  |  | 
CC1(C)S[C@@H]2[C@H](NC(=O)[C@H](N)c3ccccc3)C(=O)N2[C@H]1C(=O)O [Ampicillin, ampicillin, reference compound] |  |  |  |  |  |  |  |  | ≤ 1 | ≤ 1 | ≤ 1 | ≤ 1 | ≤ 1 |  |  | 
WLLKWLKKL-NH2 [WALK243.01] | 32 | 4 | 8 | 4 | 4 | 4.8 |  |  |  |  |  |  |  |  |  | 
KWLLKWLKKL-NH2 [WALK244.02] | 32 | 2 | 8 | 2 | 2 | 2.8 |  |  |  |  |  |  |  | no significant cytotoxicity | dose-dependent inhibitory effect | 
KWLLKLLKW-NH2 [WALK243.09] | 64 | 4 | 16 | 8 | 4 | 6.7 |  |  |  |  |  |  |  |  |  | 
KLLKWLKKWL-NH2 [WALK244.05] | 32 | 2 | 4 | 2 | 2 | 2.4 |  |  |  |  |  |  |  | no significant cytotoxicity | dose-dependent inhibitory effect | near-complete NO inhibition
LKWLLKWLK-NH2 [WALK243.03] | 32 | 4 | 16 | 8 | 4 | 6.7 |  |  |  |  |  |  |  |  |  | 
NC[C@H]1O[C@H](O[C@H]2[C@H](O)[C@@H](O[C@H]3O[C@H](CO)[C@@H](O)[C@H](N)[C@H]3O)[C@H](N)C[C@@H]2N)[C@H](O)[C@@H](O)[C@@H]1O [Kanamycin, kanamycin, reference compound] |  | 4 (≈ 8.26 µM) | 8 (≈ 16.5 µM) | 4 (≈ 8.26 µM) | 4 (≈ 8.26 µM) | 4.8 |  |  |  |  |  |  |  |  |  | 
LKKWLKWLLK-NH2 [WALK244.07] | 32 | 2 | 8 | 2 | 2 | 2.8 |  |  |  |  |  |  |  | no significant cytotoxicity | dose-dependent inhibitory effect | 
LKWLKWLLK-NH2 [WALK243.06] | 32 | 2 | 8 | 2 | 2 | 2.8 |  | did not demonstrate significant cytotoxicity |  |  |  |  |  |  |  | 
WLKKLLKWLK-NH2 [WALK244.08] | 8 | ≤1 | 4 | 2 | 2 | ≤2.0 |  |  |  |  |  |  |  |  |  | 
KWLKKLLKWL-NH2 [WALK244.09] | 8 | 2 | 2 | 2 | ≤1 | ≤1.7 | 80.7 |  |  |  |  |  |  |  |  | 
WLKKWLKKLL-NH2 [WALK244.01] | 16 | 2 | 2 | 2 | ≤1 | ≤1.7 |  |  |  |  |  |  |  |  |  | 
KLLKWLLKW-NH2 [WALK243.05] | 64 | 2 | 16 | 2 | 2 | 3.4 |  | did not demonstrate significant cytotoxicity |  |  |  |  |  |  |  | 
LKKWLKWLL-NH2 [WALK243.07] | 16 | 2 | 4 | 2 | 2 | 2.4 |  |  |  |  |  |  |  |  |  | 
